Measurements: patent US20060189602A1, “Pyridazinone compounds” (Anadys Pharmaceuticals, Inc., priority 2004, published 2006)

Target: HCV NS5B polymerase (Hepatitis C virus genotype 1b, UniProt P26663)
Experiment: NS5B Polymerase Inhibition Assay
Format: biochemical
Settings: 50 nM enzyme, [α-33P]GTP, oligo (rG13)/poly rC, 75 min at 28° C.
Experimental: NS5B Polymerase Inhibition Assay
Compounds were tested for HCV polymerase inhibition. Assays were performed in a 96-well streptavidin-coated FlashPlate using 50 nM enzyme, 0.5 μCi of [α-^33P]GTP, 0.63 μM GTP, and 250 nM 5′biotinylated oligo (rG13)/poly rC in 20 mM Tris-HCl, pH 7.5, 5 mM MgCl2, 20 mM NaCl, 5 mM dithiothreitol, and 0.1 g/L BSA. The reaction was stopped by aspiration after 75 min at 28° C. and the plate was washed several times. After washing, incorporated radioactivity was counted using a Microbeta scintillation counter.

HCV NS5B polymerase, sequence (P26663 2420-3010): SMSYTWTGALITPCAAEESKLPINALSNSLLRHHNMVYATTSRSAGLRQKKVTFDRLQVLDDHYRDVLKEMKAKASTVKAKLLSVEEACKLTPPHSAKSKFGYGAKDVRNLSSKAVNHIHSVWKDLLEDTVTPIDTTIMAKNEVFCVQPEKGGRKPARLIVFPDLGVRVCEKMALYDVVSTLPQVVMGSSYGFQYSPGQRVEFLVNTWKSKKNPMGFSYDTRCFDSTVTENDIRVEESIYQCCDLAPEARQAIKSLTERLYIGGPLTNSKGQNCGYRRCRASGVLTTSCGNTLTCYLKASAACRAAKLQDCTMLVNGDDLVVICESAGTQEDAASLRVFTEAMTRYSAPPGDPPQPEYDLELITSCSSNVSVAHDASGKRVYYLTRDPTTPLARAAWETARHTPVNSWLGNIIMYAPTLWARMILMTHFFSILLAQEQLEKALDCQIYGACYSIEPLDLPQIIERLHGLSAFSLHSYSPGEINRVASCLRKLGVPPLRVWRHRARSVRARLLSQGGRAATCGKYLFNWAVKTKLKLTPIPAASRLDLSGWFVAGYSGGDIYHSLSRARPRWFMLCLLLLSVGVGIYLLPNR

Row | IC50 [µM] | Compound
1 | < 10 | CCCCc1nn(CCC(C)C)c(=O)c(C2=Nc3ccc(O)cc3S(=O)(=O)N2)c1O [Compound 36, 6-Butyl-5-hydroxy-4-(7-hydroxy-1,1-dioxo-1,2-dihydro-1λ^6-ben-zo[1,2,4]thiadiazin-3-yl)-2-(3-methyl-butyl)-2H-pyridazin-3-one]
2 | < 10 | CCCCn1nc(CCC(C)C)c(O)c(C2=Nc3ccc(O)cc3S(=O)(=O)N2)c1=O [Compound 38, 2-Butyl-5-hydroxy-4-(7-hydroxy-1,1-dioxo-1,2-dihydro-1λ^6-ben-zo[1,2,4]thiadiazin-3-yl)-6-(3-methyl-butyl)-2H-pyridazin-3-one]
3 | < 10 | CCCCn1nc(CCC(C)C)c(O)c(C2=Nc3ccc(OCC(N)=O)cc3S(=O)(=O)N2)c1=O [Compound 39, 2-{3-[2-Butyl-5-hydroxy-6-(3-methyl-butyl)-3-oxo-2,3-di-hydro-pyridazin-4-yl]-1,1-dioxo-1,2-dihydro-1λ^6-ben-zo[1,2,4]thiadiazin-7-yloxy}-acetamide]
4 | 10 to 50 | CCCCc1nn(CCCC)c(=O)c(C2=Nc3ccc(OC)cc3S(=O)(=O)N2)c1O [Compound 40, 2,6-Dibutyl-5-hydroxy-4-(7-methoxy-1,1-dioxo-1,2-dihydro-1λ^6-ben-zo[1,2,4]thiadiazin-3-yl)-2H-pyridazin-3-one]
5 | 10 to 50 | CC(C)c1nn(Cc2ccccc2)c(=O)c(C2=Nc3ccccc3S(=O)(=O)N2)c1O [Compound 41, 2-Benzyl-4-(1,1-dioxo-1,2-dihydro-1λ^6-ben-zo[1,2,4]thiadiazin-3-yl)-5-hydroxy-6-isopropyl-2H-py-ridazin-3-one]
6 | < 10 | CCCc1nn(CCC(C)C)c(=O)c(C2=Nc3ccc(OC)cc3S(=O)(=O)N2)c1O [Compound 42, 5-Hydroxy-4-(7-methoxy-1,1-dioxo-1,2-dihydro-1λ^6-ben-zo[1,2,4]thiadiazin-3-yl)-2-(3-methyl-butyl)-6-propyl-2H-py-ridazin-3-one]
7 | < 10 | CCCCc1nn(CCCC)c(=O)c(C2=Nc3ccc(O)cc3S(=O)(=O)N2)c1O [Compound 45, 2,6-Dibutyl-5-hydroxy-4-(7-hydroxy-1,1-dioxo-1,2-dihydro-1λ^6-ben-zo[1,2,4]thiadiazin-3-yl)-2H-pyridazin-3-one]
8 | < 10 | CCCc1nn(CCC(C)C)c(=O)c(C2=Nc3ccc(O)cc3S(=O)(=O)N2)c1O [Compound 46, 5-Hydroxy-4-(7-hydroxy-1,1-dioxo-1,2-dihydro-1λ^6-ben-zo[1,2,4]thiadiazin-3-yl)-2-(3-methyl-butyl)-6-propyl-2H-py-ridazin-3-one]
9 | < 10 | CCCCc1nn(CCCC)c(=O)c(C2=Nc3ccc(OCC(N)=O)cc3S(=O)(=O)N2)c1O [Compound 47, 2-[3-(2,6-Dibutyl-5-hydroxy-3-oxo-2,3-dihydro-pyridazin-4-yl)-1,1-di-oxo-1,2-dihydro-1λ^6-benzo[1,2,4]thiadiazin-7-yl-oxy]-acetamide]
10 | < 10 | CCCc1nn(CCC(C)C)c(=O)c(C2=NS(=O)(=O)c3cc(OCC(N)=O)ccc3N2)c1O [Compound 49, 2-{3-[5-Hydroxy-2-(3-methyl-butyl)-3-oxo-6-propyl-2,3-di-hydro-pyridazin-4-yl]-1,1-dioxo-1,2-dihydro-1λ^6-ben-zo[1,2,4]thiadiazin-7-yloxy}-acetamide]
11 | 10 to 50 | CC(C)CCn1nc(-c2cccs2)c(O)c(C2=NS(=O)(=O)c3sc(Cl)cc3N2)c1=O [Compound 50, 4-(2-Chloro-7,7-dioxo-4,7-dihydro-1,7λ^6-dithia-4,6-diaza-inden-5-yl)-5-hydroxy-2-(3-methyl-butyl)-6-thiophen-2-yl-2H-py-ridazin-3-one]
12 | < 10 | CC(C)CCc1nn(CCC(C)C)c(=O)c(C2=NS(=O)(=O)c3cc(OCC(N)=O)ccc3N2)c1O [Compound 51, 2-{3-[5-Hydroxy-2,6-bis-(3-methyl-butyl)-3-oxo-2,3-dihydro-py-ridazin-4-yl]-1,1-dioxo-1,2-dihydro-1λ^6-ben-zo[1,2,4]thiadiazin-7-yloxy}-acetamide]
13 | < 10 | CC(C)c1nn(CCC(C)(C)C)c(=O)c(C2=Nc3ccccc3S(=O)(=O)N2)c1O [Compound 53, 2-(3,3-Dimethyl-butyl)-4-(1,1-dioxo-1,2-dihydro-1λ^6-ben-zo[1,2,4]thiadiazin-3-yl)-5-hydroxy-6-isopropyl-2H-py-ridazin-3-one]
14 | < 10 | COc1ccc2c(c1)S(=O)(=O)NC(c1c(O)c(-c3nccs3)nn(CCC(C)C)c1=O)=N2 [Compound 54, 5-Hydroxy-4-(7-methoxy-1,1-dioxo-1,2-dihydro-1λ^6-ben-zo[1,2,4]thiadiazin-3-yl)-2-(3-methyl-butyl)-6-thiazol-2-yl-2H-py-ridazin-3-one]
15 | < 10 | COc1ccc2c(c1)S(=O)(=O)NC(c1c(O)c(-c3cccs3)nn(CCC(C)(C)C)c1=O)=N2 [Compound 56, 2-(3,3-Dimethyl-butyl)-5-hydroxy-4-(7-methoxy-1,1-dioxo-1,2-di-hydro-1λ^6-benzo[1,2,4]thiadiazin-3-yl)-6-thiophen-2-yl-2H-py-ridazin-3-one]
16 | < 10 | CC(C)c1nn(CCC2CC2)c(=O)c(C2=Nc3ccccc3S(=O)(=O)N2)c1O [Compound 57, 2-(2-Cyclopropyl-ethyl)-4-(1,1-dioxo-1,2-dihydro-1λ^6-ben-zo[1,2,4]thiadiazin-3-yl)-5-hydroxy-6-isopropyl-2H-py-ridazin-3-one]
17 | 10 to 50 | COc1ccc2c(c1)S(=O)(=O)NC(c1c(O)c(CCC#N)nn(CCC(C)(C)C)c1=O)=N2 [Compound 58, 3-[1-(3,3-Dimethyl-butyl)-4-hydroxy-5-(7-methoxy-1,1-dioxo-1,2-di-hydro-1λ^6-benzo[1,2,4]thiadiazin-3-yl)-6-oxo-1,6-di-hydro-pyridazin-3-yl]-propionitrile]
18 | < 10 | Cc1ccc(-c2nn(Cc3ccccc3)c(=O)c(C3=Nc4ccccc4S(=O)(=O)N3)c2O)s1 [Compound 59, 2-Benzyl-4-(1,1-dioxo-1,2-dihydro-1λ^6-ben-zo[1,2,4]thiadiazin-3-yl)-5-hydroxy-6-(5-methyl-thiophen-2-yl)-2H-py-ridazin-3-one]
19 | < 10 | COc1ccc2c(c1)S(=O)(=O)NC(c1c(O)c(-c3sccc3C)nn(CCC(C)C)c1=O)=N2 [Compound 61, 5-Hydroxy-4-(7-methoxy-1,1-dioxo-1,2-dihydro-1λ^6-ben-zo[1,2,4]thiadiazin-3-yl)-2-(3-methyl-butyl)-6-(3-methyl-thio-phen-2-yl)-2H-pyridazin-3-one]
20 | 10 to 50 | CC(C)c1nn(CC2CCC2)c(=O)c(C2=Nc3ccccc3S(=O)(=O)N2)c1O [Compound 63, 2-Cyclobutylmethyl-4-(1,1-dioxo-1,2-dihydro-1λ^6-ben-zo[1,2,4]thiadiazin-3-yl)-5-hydroxy-6-isopropyl-2H-py-ridazin-3-one]
21 | < 10 | Cc1ccc(-c2nn(CCC(C)(C)C)c(=O)c(C3=NS(=O)(=O)c4cc(OCC(N)=O)ccc4N3)c2O)s1 [Compound 64, 2-{3-[2-(3,3-Dimethyl-butyl)-5-hydroxy-6-(5-methyl-thiophen-2-yl)-3-ox-o-2,3-dihydro-pyridazin-4-yl]-1,1-dioxo-1,2-di-hydro-1λ^6-benzo[1,2,4]thiadiazin-7-yloxy}-acetamide]
22 | < 10 | Cc1ccsc1-c1nn(CCC(C)C)c(=O)c(C2=NS(=O)(=O)c3cc(OCC(N)=O)ccc3N2)c1O [Compound 65, 2-{3-[5-Hydroxy-2-(3-methyl-butyl)-6-(3-methyl-thiophen-2-yl)-3-ox-o-2,3-dihydro-pyridazin-4-yl]-1,1-dioxo-1,2-dihydro-1λ^6-ben-zo[1,2,4]thiadiazin-7-yloxy}-acetamide]
23 | 10 to 50 | COc1ccc2c(c1)S(=O)(=O)NC(c1c(O)c(C(C)(C)C)nn(CCC(C)(C)C)c1=O)=N2 [Compound 66, 6-tert-Butyl-2-(3,3-dimethyl-butyl)-5-hydroxy-4-(7-methoxy-1,1-di-oxo-1,2-dihydro-1λ^6-benzo[1,2,4]thiadiazin-3-yl)-2H-py-ridazin-3-one]
24 | < 10 | CC(C)(C)CCn1nc(C(C)(C)C)c(O)c(C2=Nc3ccc(O)cc3S(=O)(=O)N2)c1=O [Compound 67, 6-tert-Butyl-2-(3,3-dimethyl-butyl)-5-hydroxy-4-(7-hydroxy-1,1-di-oxo-1,2-dihydro-1λ^6-benzo[1,2,4]thiadiazin-3-yl)-2H-py-ridazin-3-one]
